# Data as given in US6171786A, “Methods for preventing multidrug resistance in cancer cells” (priority 1996, dated 2001).
# “Also recorded” adds a separate entry of the source.
# Legend:
# [1] = system: MDR1 expression; test: Inhibition of cytotoxic drug-induced MDR1 expression by inhibitors of NF-κB activation; type: cell-based, human; settings: H9
# [2] = system: MRP expression; test: Inhibition of MRP mRNA expression in H-9 cells (cDNA-PCR); type: cell-based, human; design: Inhibition of MRP expression: key to the marks not given beside the values
# Procedure: Cells were plated in 6-well Falcon tissue culture plates at 3,300 cells per well, and incubated in the appropriate concentrations of drugs. Each of the protein kinase inhibitors to be tested were added at their appropriate final concentrations, and the cells then incubated for 10 hours at 37° C. under an atmosphere of 5% CO2.
# PCR was performed using the following primers: […]
# (where β2 M represents β2 microglobulin). PCR was performed for β2 M experiments under a regime consisting of 1 cycle comprising denaturation at 94° C. for 3 minutes, primer annealing at 60° C. for 30 seconds, and primer extension at 72° C. for 1 minute, followed by 19 cycles comprising denaturation at 94° C. for 30 seconds, primer annealing at 60° C. for 30 seconds, and primer extension at 72° C. for 1 minute, followed by a final cycle comprising denaturation at 94° C. for 30 seconds, primer annealing at 60° C. for 30 seconds, and primer extension at 72° C. for 5 minutes.
# H-9 cells were used to analyze the effect of various protein kinase inhibitors on the expression of the multidrug resistance associated protein MRP (Grant et al., ibid.).
# [3] = system: MDR1 expression; test: Inhibition of cytotoxic drug-induced MDR1 expression by protein kinase inhibitors (cDNA-PCR)
# Procedure: (§1) Cells were plated in 6-well Falcon tissue culture plates at 3,300 cells per well, and incubated in the appropriate concentrations of drugs. Each of the protein kinase inhibitors to be tested were added at the appropriate final concentration 45 minutes prior to MDR1 induction by the addition of Ara-C or TPA, with the exception of herbimycin A, which was added 12 hours prior to Ara-C or TPA, and tyrphostins A25 and B46, which were each added 16 hours prior to MDR1 induction by the addition of Ara-C or TPA. Cells were incubated overnight (TPA) or for 10 hours (Ara-C) at 37° C./ 5% CO2 after the addition of the MDR1 inducing agents before harvesting for cDNA-PCR analysis.
# In addition, the analysis of certain drugs imposed added requirements. For experiments using calphostin C, cells were incubated under direct white light illumination. For experiments using D,L-threo-sphingosine, the cell culture medium was pre-treated with the appropriate concentration of the drug for one hour at 37° C. with continuous gentle mixing. After this pretreatment, cells were resuspended in media supplemented with drug and incubated for 45 minutes as described above.
# To further evaluate the capacity of protein kinase inhibitors to suppress MDR1 induction by cytotoxic drugs and PKC agonists, H-9 human T-cell leukemia cells were used in cDNA-PCR assays to examine induced MDR1 mRNA expression levels in the presence of protein kinase inhibitors.
# [4] = system: MDR1 expression; test: Induction of MDR1 expression by agents that increase intracellular Ca2+; type: cell-based, human; settings: H9 cells, 10 hrs
# Procedure: H9 cells were seeded into each well of 6-well plates (10^5 cells/well in 3 mL of RPMI-1640 medium/10% fetal bovine serum/2 mM L-glutamine/100 U/mL penicillin and 100 μg/mL streptomycin). Experimental cultures were treated with either the calcium-specific ionophore A23187 or an inhibitor of Ca^2+ -dependent ATPase, thapsigargin. Cells were incubated with 10 μM A23187 or 10 μg/mL thapsigargin for 10 hrs at 37° C., 5% CO2 in a humidified atmosphere. Negative control cultures were incubated as above without the addition of either A23187 or thapsigargin.
# After each incubation was complete, steady-state levels of MDR1- and β2 -microglobulin mRNA (internal standard) were determined by RT-PCR as described above in Example 4. PCR products were then analyzed in 7.5% polyacrylamide gel electrophoresis and autoradiographed. […] The absence of the MDR1-specific band and presence of the β2 -microglobulin specific band was consistent with the results on uninduced H9 cells shown above in Examples 4 and 5 and FIGS. 7A through 7F.
# [5] = system: MDR1 expression; test: Inhibition of TPA- or DOG-induced MDR1 expression; type: cell-based, human; settings: H-9 cells; 32 μM erbstatin analog
# Procedure: PBL were treated with 1 ng/mL TPA; H9 and K562 cells with 10 ng/mL TPA; KG1a and KG1 cells with 100 ng/mL TPA and the other cell lines with 10 ng/mL TPA.
# as §1
# [6] = system: MDR1 expression (P-glycoprotein); test: Induction of MDR1 expression by cytotoxic drugs (dye efflux, UIC2, cDNA-PCR); type: cell-based, human; settings: for maintenance of MDR1 expression after removal of drug: K562 subpopulation
# Procedure: (Commercially-available kits (for example, from GIBCO/BRL, Gaithersburg, Md.) can be advantageously modified for making cDNA using random hexamers.) PCR is then performed using the following primers: […]
# (where β2 M represents β2 microglobulin). PCR was performed for β2 M experiments under a regime consisting of 1 cycle comprising denaturation at 94° C. for 3 minutes, primer annealing at 60° C. for 30 seconds, and primer extension at 72° C. for 1 minute, followed by 19 cycles comprising denaturation at 94° C. for 30 seconds, primer annealing at 60° C. for 30 seconds, and primer extension at 72° C. for 1 minute, followed by a final cycle comprising denaturation at 94° C. for 30 seconds, primer annealing at 60° C. for 30 seconds, and primer extension at 72° C. for 5 minutes. MDR1 cDNA sequences were amplified using the identical protocol as for β2 M, but extending the amplification from 19 cycles to 25 cycles. In addition, the cDNA-PCR amplification protocol contained the following modifications: (i) Taq DNA polymerase was added to the PCR mixtures after initial heating of the samples to 94° C. (ii) The yield of the β2 -microglobulin-specific band, obtained after 22-28 cycles of PCR, was used as the primary criterion for equalizing the starting amounts of the cDNA templates in different preparations, in order to account for differential RNA degradation in cells subjected to different types of treatment. ^32 P-labeled PCR products were detected by autoradiography.
# In particular PKC is activated by treatment with Ara-C. Therefore, experiments were performed to test whether Ara-C, which is not transported by P-glycoprotein, would have any effect on P-glycoprotein function in K562 leukemia cells.
# Also assayed was whether drug-induced MDR1 expression was maintained after cytotoxic drug treatment. […] At different times, MDR1 expression in the surviving cells was analyzed by dye efflux and immunofluorescence labeling with UIC2 (FIG. 3C) or by cDNA-PCR (FIG. 4E).
# [7] = system: MDR1 expression; test: Inhibition of AraC-induced MDR1 expression by phospholipase C inhibitors (RT-PCR); type: cell-based, human; settings: U73122 1 and 10 μM; H9, 25 μM AraC
# Procedure: The inhibitor was added 45 min. prior to the addition of Ara C. Negative control cultures were incubated as above without the addition of either AraC or U73122.
# The specificity of phospholipase C-targeted inhibition of MDR1 induction by cytotoxic drugs was determined in a comparative experiment using a known inhibitor of […] phospholipase C (PC-PLC).
compound,measurement,setting,value
Cc1ccc(S(=O)(=O)N[C@@H](Cc2ccccc2)C(=O)CCl)cc1 [N-tosyl-L-phenylalanine chloromethyl ketone],inhibition of MDR1 induction by Adriamycin (2 μM),[1]; inhibitor 25 μM,completely abrogate induction of MDR1 gene expression
same,inhibition of MDR1 induction by Ara C (25 μM),[1]; inhibitor 25 μM,completely abrogate induction of MDR1 gene expression; also recorded: complete suppression of AraC-induced MDR1 expression
S=C(S)N1CCCC1 [pyrrolidone dithiocarbamate],inhibition of MDR1 induction by Ara C (25 μM),[1]; inhibitor 20 μM,complete suppression of AraC-induced MDR1 expression
same,inhibition of MDR1 induction by Adriamycin (2 μM),[1]; inhibitor 100 μM,completely abrogate induction of MDR1 gene expression
same,inhibition of MDR1 induction by Ara C (25 μM),[1]; inhibitor 100 μM,completely abrogate induction of MDR1 gene expression
neomycin sulfate,MRP expression,[2]; 10 mM,capable of inhibiting MRP expression; also recorded: strongly inhibited
same,Inhibition of MRP expression,"[2]; 10 mM, 10 h",++++
same,inhibition of Ara-C induced MDR1 expression,[3]; 10 mM neomycin sulfate,inhibit Ara-C induced MDR1 expression; also recorded: completely prevent cytotoxic drug and PKC agonist induction of MDR1 expression
C/C=C(/C)C(=O)O[C@H]1C(C)=C2[C@H]([C@@H]1OC(=O)CCCCCCC)[C@@](C)(OC(C)=O)C[C@H](OC(=O)CCC)[C@@]1(O)[C@H]2OC(=O)[C@@]1(C)O [thapsigargin],MDR1 expression (RT-PCR),[4]; 10 μg/mL,capable of inducing MDR1 gene expression; also recorded: a clear MDR1-specific band was detected
"COC(=O)C=Cc1cc(O)ccc1O [methyl-2,5-dihydroxycinnamate]",inhibition of TPA-induced MDR1 expression,[5],completely inhibited TPA-induced MDR1 expression; also recorded: inhibit MDR1 expression induced by treatment of sensitive cells with TPA
same,MRP expression,[2]; 32 μM,capable of inhibiting MRP expression; also recorded: strongly inhibited
same,inhibition of Ara-C induced MDR1 expression,"[3]; 32 μM erbstatin analog, H-9 cells",completely inhibit Ara-C induced MDR1 expression
CNc1ccc2oc(C[C@H]3O[C@@]4(CC[C@H]3C)O[C@H]([C@H](C)C(=O)c3ccc[nH]3)[C@H](C)C[C@H]4C)nc2c1C(=O)O [A23187],MDR1 expression (RT-PCR),[4]; 10 μM,capable of inducing MDR1 gene expression; also recorded: a clear MDR1-specific band was detected
COc1ccc2c(c[n+](C)c3c4cc5c(cc4ccc23)OCO5)c1OC [chelerythrine],MRP expression,[2]; 1-5 μM,capable of inhibiting MRP expression; also recorded: strongly inhibited
same,inhibition of MDR1 induction by cytotoxic drugs,[3],capable of inhibiting MDR1 induction by cytotoxic drugs
same,prevention of MDR1 induction by chemotherapeutic drugs,[3]; 5 μM chelerythrine,prevent MDR1 induction by chemotherapeutic drugs
same,inhibition of Ara-C induced MDR1 expression,"[3]; chelerythrine 1 μM and 5 μM, H-9",Progressive dose-dependent inhibition
"CC(=O)Oc1ccccc1C(=O)O [aspirin, acetylsalicylic acid]",inhibition of MDR1 induction by Adriamycin (2 μM),[1]; inhibitor 10 mM,completely abrogate induction of MDR1 gene expression
same,inhibition of MDR1 induction by Ara C (25 μM),[1]; inhibitor 10 mM,completely abrogate induction of MDR1 gene expression; also recorded: complete suppression of AraC-induced MDR1 expression
"Nc1ccn([C@@H]2O[C@H](CO)[C@@H](O)[C@@H]2O)c(=O)n1 [Ara-C, 1-β-D-arabinofuranosylcytosine]",MRP expression,"[2]; 25 μM Ara-C, data not shown",slight decrease in MRP expression
same,MDR1 mRNA expression,"[6]; EJ bladder carcinoma, 10 μM Ara-C",activated MDR1 mRNA expression
same,MDR1 mRNA expression,[6]; H9 T-cell leukemia,a clear MDR1-specific band was detected
same,subpopulation of cells that effluxed Rh123,"[6]; K562, Ara-C 12-72 hours",3-17%
same,MDR1 mRNA expression,"[6]; K562, cDNA-PCR",dose-dependent increase in MDR1 mRNA expression
same,maintenance of MDR1 expression after removal of drug,[6]; drug-free medium,up to 11 weeks
same,maintenance of MDR1 expression after removal of drug,[6]; treated 3-5 days then drug-free,maintained for a least several weeks
same,MDR1 mRNA expression,[6]; KB-3-1 epidermoid carcinoma,activated MDR1 mRNA expression
same,P-glycoprotein expression,"[6]; KG1 leukemia cells, 10 μM Ara-C",increased P-glycoprotein expression
same,MDR1 induction,"[6]; human leukemia and solid-tumor derived cell lines, short-term exposure","MDR1 induction, both at the mRNA and at the protein levels, was observed"
"COc1ccc2c(c1)CC[C@@H]1[C@@H]2CC[C@]2(C)[C@@H](NCCCCCCN3C(=O)C=CC3=O)CC[C@@H]12 [U73122, 1-(6-((1β-3-methoxyestra-1,3,5(10)-trien-17-yl)amino)hexyl)-1-H-pyrrole-2,5-dione]",inhibition of AraC-induced MDR1 mRNA,[7],inhibited the induction of MDR1 mRNA; also recorded: reduced the steady-state levels of MDR1 mRNA
O=C([O-])c1ccccc1O.[Na+] [sodium salicylate],inhibition of MDR1 induction by Adriamycin (2 μM),[1]; inhibitor 20 mM,completely abrogate induction of MDR1 gene expression
same,inhibition of MDR1 induction by Ara C (25 μM),[1]; inhibitor 20 mM,completely abrogate induction of MDR1 gene expression; also recorded: complete suppression of AraC-induced MDR1 expression
